Structures are written as SMILES. ≈ marks a conversion by molar mass, not a printed value.

Results on 4 compounds are retold here after patent publication US20250034139A1, “AMINE COMPOUNDS HAVING ANTI-INFLAMMATORY, ANTIFUNGAL, ANTIPARASITIC, AND ANTICANCER ACTIVITY” (PHARMA CINQ, LLC, priority 2013, published 2025).

The test system of experiment [1] is PC3 human prostate cancer cells. Briefly: Example S: in vitro anticancer screen, PC-3 cells, Wst1. It is filed as cell-based. To be noted: Homo sapiens, PC-3, approximately 20 hours, Wst1, read-out: PC-3, percent of cancer cell survival relative to vehicle treated cells. In short, it runs like this:
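PC-3 cells, 2×10^4 cells/well, exposed ~20 h to vehicle or compound at 0.4, 0.5 or 2.5 μM as specified per compound. Wst1 dye added for 2 h; absorbance 450 nm (reference 630 nm), triplicates. Values are percent cell survival versus vehicle-treated cells.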

The next experiment deals with S. cerevisiae. Briefly: Example I: Saccharomyces cerevisiae growth inhibition (OD 600 nm). To be noted: Saccharomyces cerevisiae, 18 hour incubation at 30° C., OD 600 nm, XLfit; for IC50: read-out: IC50, uM (50% inhibition of fungal growth); for MIC: read-out: MIC, uM (99% of inhibition of fungal growth). The class given is cell-based. As for the experimental part: An overnight culture of S. cerevisiae was dilution in YPD broth to concentration of 40,000/ml and 150 μl/well was plated in 96 well plates. Compounds were then added to each well with concentration ranged from 4 to 50 μM as final concentration. The plates were inoculated at 30° C. overnight with shaking at 220 rpm and absorbance at 600 nm was read after 18 hour incubation.
• 1. One days prior to the inoculum preparation, pick a single colony of S. cerevisiae from the Sabouraud Dextrose Agar plate using the inoculum loop and inoculate into a 50 mL tube containing 10 ml of YPD growth medium • 2. Incubate at 30° C. with shaking at 220 rpm for 24 hours with loosen lid to allow air in and facilitates growth. • 3. Examine an aliquot of the culture under a microscope for yeast cell morphology and lack of bacterial contamination. • 4. Dilute the overnight culture with YPD medium at 1:30 dilution (70 ul to 2.1 ml) and count the number of cells as 4,230,000/ml. • 5. Mix 620 μl of 1:30 dilution and 64.4 ml YPD to make final concentration of 40,000/ml cells • 6. Plated 144 μl/well in four 96-well plates.
• 1. From 10 mM DMSO stock solutions, make serial dilutions of compounds to 0.1, 0.2, 0.3, 0.63 and 1.25 mM solutions • 2. Add 6 μl each of diluted compound solutions per well in duplicates. The final concentrations were 0, 4, 8, 12, 25 and 50 micromolar. • 3. Incubated all plates at 30 C for overnight (˜18 hours) with 220 rpm shaking. • 4. Read absorbance at OD600 for each plate on Spectra Max Plus plate reader. • 5. Calculate the % inhibition of each compound against the DMSO treated cell and plotted.

The test system of a further experiment is Trichophyton rubrum. The experiment is described as follows: Example J: Trichophyton rubrum growth inhibition, scoring by eye. The class given is cell-based. Conditions: Trichophyton rubrum, 144 h; 6 days at 30° C., tested 6 to 40 μM; read-out: MIC, μM (maximum inhibition concentration, scoring by eye). As for the experimental part:
Trichophyton grown on two agar plates were collected by scraping into 10 ml saline and filtered through 8 μm filters. […] This experiment included some active compounds from previous experiment and added several untested compounds. […] Following table listed the maximum inhibition concentration (MIC) based on scoring by eye. Scrape frozen Trichophyton culture from ATCC vial and suspended in 100 μl PDB, and then plate on a PDA plate. Incubate plate at 30 C for 4 days. The plate was covered almost full. […] Take OD of collected solution at 520 nm and 600 nm: […] Part-II: […] Add 6 μl each of diluted compound solutions per well in triplicates. […] Wrap the plates with […] incubate all plates at 30° C. for 6 days. • Take picture of the plates on KODAK imager with 17 captures of 1.5 sec/capture for total of 25.5 second exposure.

Another experiment relates to THP-1 cells. The experiment is described as follows: Example D: LPS-triggered THP-1 cell death assay, acute/5-hour and chronic/48-hour. It is filed as cell-based, Human. Conditions: for Viable cell percent change, Chronic/48-hour, Mean: 10 ng/ml LPS, 0.1 μM test compound. The procedure: Compounds of the invention were tested at 0.1 μM versus AC in the LPS-triggered THP-1 cell death assay. Both acute/5-hour and chronic/48-hour phases of cell death were assessed. Compounds were screened in batches with DMSO as the negative control and AC as the high activity control.

Experiment [2] has as its system PC-3 prostate cancer cells. Briefly: Example T: sensitisation of PC-3 cells to doxorubicin, oxaliplatin, paclitaxel or vincristine, Wst1. It is filed as cell-based, human. To be noted: PC-3 cells, 72 hours; for Doxorubicin 3.5 μM: percent cell survival / Oxaliplatin 100 μM: percent cell survival / Paclitaxel 50 μM: percent cell survival / Vincristine 100 nM: percent cell survival: chemotherapy agent alone normalized to 100%.

The test system of experiment [3] is 4T1 murine breast cancer cells. The experiment is described as follows: Example S: in vitro anticancer screen, 4T1 cells, Wst1. To be noted: Mus musculus, 4T1, 18 h, 18 hr, Wst1; for viability at 1 µM: read-out: 4T1 1 μM, percent of cancer cell survival relative to vehicle treated cells; for viability at 5 µM: read-out: 4T1 5 μM, percent of cancer cell survival relative to vehicle treated cells. It is filed as cell-based, mouse. In short, it runs like this: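 4T1 cells seeded at 1×10^4/well were exposed to compound at 1 μM or 5 μM for 18 hr after plating. Wst1 tetrazolium dye was then added for about 2 hr and absorbance read at 450 nm (reference 630 nm). Values are percent survival relative to vehicle-treated cells.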

Experiment [4] concerns Candida albicans strain 3153. Briefly: Example H: Candida albicans growth inhibition (OD 600 nm). The class given is cell-based. To be noted: for MIC: Candida albicans, 3153, 24 hrs at 30° C., YPD, XLfit, read-out: MIC (uM) (99% of inhibition of fungal growth); for IC50: Candida albicans, 3153, read-out: IC50 (uM) (50% inhibition of fungal growth), 24 hrs at 30° C., YPD, XLfit. In short, it runs like this: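 Growth inhibition computed as % versus DMSO control from OD600 after ~24 h at 30° C. Inoculum: washed overnight YPD culture of strain 3153 at 3.5×10^4 CFU/ml in YPD; final compound concentrations 0, 5, 10, 16, 22, 30, 40 μM, duplicate wells.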

Experiment [5] has as its system Cryptococcus neoformans (serotype A). The experiment is described as follows: Example L: Cryptococcus neoformans (serotype A) growth inhibition. The class given is cell-based. To be noted: Cryptococcus neoformans, OD of 26 hour reading, 30° C., XLfit. The procedure: Cryptococcus neoformans (serotype A) were plated in 96 well plates with 144 μl/well of 5×10e5 CFU/ml in YPD growth medium. Diluted compounds were then added to each well with concentration ranged from 0.05 to 10 μM as final concentration in duplicates. The plates were inoculated at 30° C. Two readings of OD at 600 nm were measured after 18 hr and […] treatments.
C12-imidazol had relative weak activity against Cryptococcus serotype A at low concentration. Data plotted was based on 26 hour reading because 18 hour reading was too low.
• 1. Pick a single colony of Cryptococcus from the Sabouraud Dextrose agar plate using the inoculum loop and inoculate into a 125 ml flask containing 25 ml of YPD growth medium • 2. Incubate at 30° C. with shaking at 220 rpm for 24 hours with loosen lid to allow air in and facilitates growth. • 3. Examine an aliquot of the culture under a microscope for yeast cell morphology and lack of bacterial contamination. • 4. Dilute the overnight culture with YPD medium at 1:100 dilution and count the number of cells as 8×10^6 cfu/ml. • 5. Make a final concentration of cells suspension at 5×10^5 cfu/ml in YPD medium after the stock culture had been stored at 4° C. for 3 days. • 6. Plate 144 μl/well of 5×10^5 cfu/ml cell suspension on 96-well plates. Part-II: Cryptococcus Growth Inhibition Testing with Compounds • 1. From 10 mM DMSO stock solutions, make serial dilutions of compounds to 0.0013, 0.0025, 0.0125, 0.025, 0.05, 0.125 and 0.25 mM solution • 2. Add 6 ul each of diluted compound solutions per well in duplicates. The final concentrations were 0, 0.05, 0.1, 0.5, 1.0, 2.0, 5.0 and 10 micromolar. • 3. Incubated all plates at 30° C. overnight with 175 rpm shaking. • 4. Read absorbance at OD600 after 18 and 26 hours for each plate. • 5. Calculated the % inhibition and IC50 of each compound against the untreated cell.

Experiment [6] has as its system Cryptococcus neoformans (serotype D). The experiment is described as follows: Example K: Cryptococcus neoformans (serotype D) growth inhibition. It is filed as cell-based. To be noted: Cryptococcus deneoformans, read-out: IC50 (concentration for 50% of inhibition); OD of 48 hour reading, 37° C., tested 4 to 60 μM, XLfit. As for the experimental part:
Cryptococcus neoformans (serotype D) were plated in 96 well plates with 144 μl/well of 8×10e5 CFU/ml in YM growth medium. Diluted compounds were then added to each well with concentration ranged from 4 to 60 μM as final concentration in duplicates. The plates were inoculated at 37° C. for total of 48 hours. Two readings of OD at 600 nm were measured after 30 and 48 hour treatments.
• 1. Pick a single colony of Cryptococcus from the YM agar plate using the inoculum loop and inoculate into a 125 ml flask containing 25 ml of YM growth medium. • 2. Incubate at 37° C. with shaking at 220 rpm for 24 hours with loosen lid to allow air in and facilitates growth. • 3. Examine an aliquot of the culture under a microscope for yeast cell morphology and lack of bacterial contamination. • 4. Dilute the overnight culture with YM medium at 1:100 dilution and count the number of cells as 1×10^6 cfu/ml. • 5. Make a final concentration of cells suspension at 8×10^5 cfu/ml in YM medium. • 6. Plate 144 μl/well of 8×10^5 cfu/ml cell suspension on 96-well plates. Part-II: Cryptococcus Growth Inhibition Testing with Compounds • 1. From 10 mM DMSO stock solutions, make serial dilutions of compounds to 0.1, 0.2, 0.3, 0.5, 1.0 and 1.5 mM solution. • 2. Add 6 ul each of diluted compound solutions per well in duplicates. The final concentrations were 0, 4, 8, 12, 20, 40 and 60 micromolar. • 3. Incubated all plates at 37° C. overnight (30 hours) with 150 rpm shaking. • 4. Read absorbance at OD600 for each plate. • 5. Leave plates in 37° C. incubator for another day and read absorbance at OD600 again at 48 hours to ensure the inhibitory effect of the compounds. • 6. Calculated the % inhibition and IC50 of each compound against untreated cells.

As for `c1ccc(OCCCCCCCCNc2ccnc3ccccc23)cc1` [AN, N-(8-Phenoxyoctyl)quinolin-4-amine], the viability at 0.4 µM in experiment [1] (0.4 μM) is 75.9%. In the experiment on S. cerevisiae, the IC50 was found to be 19.1 µM and the MIC was determined as 24.3 µM (≈ 8.45 µg/mL). In addition, the MIC in the experiment on Trichophyton rubrum is 18 µM (≈ 6.27 µg/mL). Moreover, the “Viable cell percent change, Chronic/48-hour, Mean” value (shortened to “Viable cell percent change”) in the experiment on THP-1 cells is on record as 31.66%. For the same compound, in the experiment on THP-1 cells (0.1 μM, 5-hour and 48-hour time points), the “activity relative to AC in the LPS-triggered THP-1 cell death assay, in words” value is “equivalent activity to AC at both the 5-hour and 48-hour time points”. In addition, the viability at 0.4 µM in experiment [2] (Homo sapiens, compound 0.4 μM alone, Wst1, vehicle = 100, read-out: No Chemo: percent cell survival) was determined as 75.9%. Further, the “Doxorubicin 3.5 μM: percent cell survival” value in experiment [2] (compound 0.4 μM + doxorubicin 3.5 μM) came to 28.2%. The “Oxaliplatin 100 μM: percent cell survival” value in experiment [2] (compound 0.4 μM + oxaliplatin 100 μM) was determined as 24.7%. Also, in [2] (compound 0.4 μM + paclitaxel 50 μM), the “Paclitaxel 50 μM: percent cell survival” value came out at 45.8%. In addition, the “Vincristine 100 nM: percent cell survival” value in [2] (compound 0.4 μM + vincristine 100 nM) came to 67.3%. In addition, in experiment [3], the viability at 1 µM came to 26.6% and the viability at 5 µM was determined as 50.3%.

For `CCCCCCOC(=O)c1ccc(Nc2ccnc3ccccc23)cc1` [AP, Hexyl 4-(quinolin-4-ylamino)benzoate], the MIC was 42 µM (≈ 14.6 µg/mL) in experiment [4], 46.5 µM (≈ 16.2 µg/mL) in the experiment on S. cerevisiae and approximately 40 µM (≈ 13.9 µg/mL) in the experiment with Trichophyton rubrum. Also, the IC50 in experiment [4] was determined as 25 µM; in the experiment with S. cerevisiae it was 26.3 µM. Moreover, the “Viable cell percent change” value in the experiment on THP-1 cells stood at 37.38%. Besides, in experiment [3], the viability at 1 µM was determined as 110%. Also, the viability at 5 µM in experiment [3] worked out at 246%.

Take `CCCCCCCCCCOc1ccc(CNc2ncnc3ccccc23)cc1` [BN, N-[4-(Decyloxy)benzyl]quinazolin-4-amine]: the IC50 in experiment [5] (read-out: IC50, uM (concentration for 50% of inhibition)) was determined as 3.73 µM; in experiment [6] it was 1.03 µM. In addition, the MIC in [5] (read-out: MIC, uM (concentration for maximum - 99% of inhibition)) turned out to be 56.1 µM (≈ 22 µg/mL). Further, the “Viable cell percent change” value with THP-1 cells came out at 60.91%.

As for `CCCCCCCCn1cnc2cnc3ccccc3c21` [BP, 1-Octyl-1H-imidazo[4,5-c]quinoline], the viability at 0.5 µM in experiment [1] (0.5 μM) stood at 50.5%; in experiment [2] (Homo sapiens, compound 0.5 μM alone, Wst1, vehicle = 100, read-out: No Chemo: percent cell survival) it was 50.5%. For the same compound, the results for the MIC (in experiment [4]; in the experiment on S. cerevisiae; with Trichophyton rubrum) were 90.6 µM (≈ 25.5 µg/mL), 50.8 µM (≈ 14.3 µg/mL) and 12 µM (≈ 3.38 µg/mL), respectively. Besides, the IC50 in experiment [4] is 28.8 µM; in the experiment on S. cerevisiae, 35.6 µM. Besides, the “Doxorubicin 3.5 μM: percent cell survival” value in experiment [2] (compound 0.5 μM + doxorubicin 3.5 μM) came to 79.1%. The “Oxaliplatin 100 μM: percent cell survival” value in [2] (compound 0.5 μM + oxaliplatin 100 μM) is reported as 113.6%. The “Paclitaxel 50 μM: percent cell survival” value in [2] (compound 0.5 μM + paclitaxel 50 μM) worked out at 95.1%. In addition, the “Vincristine 100 nM: percent cell survival” value in experiment [2] (compound 0.5 μM + vincristine 100 nM) turned out to be 93%. Also, the viability at 1 µM in experiment [3] worked out at 33.6%. Moreover, the viability at 5 µM in experiment [3] came to 23.3%.
